Data from patent publication US10844044B2 (Vanderbilt University, priority 2018, dated 2020).
Read-outs that look alike come from different tables or passages of the source.

Experiments:
[1] = molecular target: WDR5 (Homo sapiens (Human), UniProt P61964); experiment: TR-FRET binding assay (displacement of 10mer-Thr-FAM probe from WDR5)
[2] = system: MV4:11 human cancer cell lines; experiment: Anti-proliferative activity, CellTiter-Glo viability assay, 7 day protocol; assay type: cell-based; conditions: Homo sapiens, MV4-11, 168 h, MV4:11 cells, 7 day incubation, read-out: GI50 on cellular proliferation of MV4:11 human cancer cell lines
Procedure, shortened: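 MV4:11 cells seeded at 3600 cells/ml and exposed to compounds for 7 days, 0.1% DMSO final. Viability measured by CellTiter-Glo luminescence. GI50 from three biological replicates, each in technical triplicate, given as mean ± S.E.M.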

[3] = read-out: Ki for Inhibition of WDR5 by TR-FRET assay, TR-FRET, 10mer-Thr-FAM probe, WDR5-His tag 2 nM, pH 7.0
[4] = read-out: Ki for Inhibition of WDR5 by TR-FRET assay

Row | Ki [1] | Compound | Ki [1, 3] | GI50 [2] | Ki [1, 4]
1 | – | CCn1cc(-c2cc(CN3CCOC3=N)cc(C(=O)N[C@H](c3ccc(Cl)c(Cl)c3)C3CC3)c2)c(C(F)(F)F)n1 [Example 281, (S)—N-(Cyclopropyl(3,4-dichlorophenyl)methyl)-3-(1-ethyl-3-(trifluoromethyl)-1H-pyrazol-4-yl)-5-((2-iminooxazolidin-3-yl)methyl)benzamide] | < 0.1 nM | < 100 nM | –
2 | – | Cc1cc([C@@H](NC(=O)c2cc(CN3CCOC3=N)cc(-c3ccc(F)cc3C#N)c2)C2CC2)ccc1F [Example 282, (S)-2′-Cyano-N-(cyclopropyl(4-fluoro-3-methylphenyl)methyl)-4′-fluoro-5-((2-iminooxazolidin-3-yl)methyl)-[1,1′-biphenyl]-3-carboxamide] | 0.21 nM | 200 nM | –
3 | – | Cc1cc([C@@H](NC(=O)c2cc(CN3CCOC3=N)cc(-c3ccc(F)cc3C(F)(F)F)c2F)C2CC2)ccc1F [Example 283, (S)—N-(Cyclopropyl(4-fluoro-3-methylphenyl)methyl)-2,4′-difluoro-5-((2-iminooxazolidin-3-yl)methyl)-2′-(trifluoromethyl)-[1,1′-biphenyl]-3-carboxamide] | 0.02 nM | 120 nM | –
4 | – | N=C1OCCN1Cc1cc(C(=O)N[C@H](c2ccc(Cl)c(Cl)c2)C2CC2)cc(-c2ncc(F)cc2C(F)(F)F)c1 [Example 284, (S)—N-(Cyclopropyl(3,4-dichlorophenyl)methyl)-3-(5-fluoro-3-(trifluoromethyl)pyridin-2-yl)-5-((2-iminooxazolidin-3-yl)methyl)benzamide] | 0.11 nM | 270 nM | –
5 | – | Cc1cc([C@@H](NC(=O)c2cc(CN3CCOC3=N)cc(-c3ccc(F)cc3C(F)(F)F)c2)C2CC2)ccc1F [Example 285, (S)—N-(Cyclopropyl(4-fluoro-3-methylphenyl)methyl)-4′-fluoro-5-((2-iminooxazolidin-3-yl)methyl)-2′-(trifluoromethyl)-[1,1′-biphenyl]-3-carboxamide] | < 0.1 nM | < 100 nM | –
6 | – | CC(C)n1cc(-c2cc(CN3CCOC3=N)cc(C(=O)N[C@H](c3ccc(F)c(F)c3)C3CC3)c2)c(C(F)(F)F)n1 [Example 286, (S)—N-(Cyclopropyl(3,4difluorophenyl)methyl)-3-((2-iminooxazolidin-3-yl)methyl)-5-(1-isopropyl-3-(trifluoromethyl)-1H-pyrazol-4-yl)benzamide] | < 0.1 nM | < 100 nM | –
7 | – | Cc1cc([C@@H](NC(=O)c2cc(CN3CCOC3=N)cc(-c3cc(C(F)(F)F)nn3C)c2)C2CC2)ccc1F [Example 287, (S)—N-(Cyclopropyl(4-fluoro-3-methylphenyl)methyl)-3-((2-iminooxazolidin-3-yl)methyl)-5-(1-methyl-3-(trifluoromethyl)-1H-pyrazol-5-yl)benzamide] | – | 100 nM | < 0.1 nM
8 | – | Cc1cc([C@@H](NC(=O)c2cc(Cn3ccoc3=N)cc(-c3cn(C(C)C)nc3C(F)(F)F)c2)C2CC2)ccc1F [Example 291, (S)—N-(Cyclopropyl(4-fluoro-3-methylphenyl)methyl)-3-((2-iminooxazol-3(2H)-yl)methyl)-5-(1-isopropyl-3-(trifluromethyl)-1H-pyrazol-4-yl)benzamide] | < 0.1 nM | < 100 nM | –
9 | – | CCn1cc(-c2cc(Cn3ccoc3=N)cc(C(=O)NCc3ccc(F)c(C)c3)c2)c(C(F)(F)F)n1 [Example 294, 3-(1-Ethyl-3-(trifluoromethyl)-1H-pyrazol-4-yl)-N-(4-fluoro-3-methylbenzyl)-5-((2-iminooxazol-3(2H)-yl)methyl)benzamide] | – | < 100 nM | < 0.1 nM
10 | – | CCn1cc(-c2cc(CN3CCOC3=N)cc(C(=O)NCc3ccc(F)c(C)c3)c2)c(C(F)(F)F)n1 [Example 295, 3-(1-Ethyl-3-(trifluoromethyl)-1H-pyrazol-4-yl)-N-(4-fluoro-3-methylbenzyl)-5-((2-iminooxazolidin-3-yl)methyl)benzamide] | – | < 100 nM | < 0.1 nM
11 | – | CCn1cc(-c2cc(Cn3ccoc3=N)cc(C(=O)N[C@H](c3ccc(F)c(Cl)c3)C3CC3)c2)c(C(F)(F)F)n1 [Example 298, (S)—N-((3-Chloro-4-fluorophenyl)(cyclopropyl)methyl)-3-(1-ethyl-3-(trifluoromethyl)-1H-pyrazol-4-yl)-5-((2-iminooxazol-3(2H)-yl)methyl)benzamide] | < 0.1 nM | < 100 nM | –
12 | – | Cc1cc([C@@H](NC(=O)c2cc(Cn3ccoc3=N)cc(-c3cn(C)nc3C(F)(F)F)c2)C2CC2)ncc1F [Example 299, (S)—N-(Cyclopropyl(5-fluoro-4-methylpyridin-2-yl)methyl)-3-((2-iminooxazol-3(2H)-yl)methyl)-5-(1-methyl-3-(trifluoromethyl)-1H-pyrazol-4-yl)benzamide] | < 0.1 nM | < 100 nM | –
13 | – | Cc1cc([C@@H](NC(=O)c2cc(CN3CCOC3=N)cc(-c3cn(C)nc3C(F)(F)F)c2)C2CC2)ncc1F [Example 300, (S)—N-(Cyclopropyl(5-fluoro-4-methylpyridin-2-yl)methyl)-3-((2-iminooxazolidin-3-yl)methyl)-5-(1-methyl-3-(trifluoromethyl)-1H-pyrazol-4-yl)benzamide] | < 0.1 nM | < 100 nM | –
14 | – | N=C1OCCN1Cc1cc(C(=O)N[C@H](c2ccc(Cl)c(F)c2)C2CC2)cc(-c2ccc(F)cc2Cl)c1 [Example 301, (S)-2′-Chloro-N-((4-chloro-3-fluorophenyl)(cyclopropyl)methyl)-4′-fluoro-5-((2-iminooxazolidin-3-yl)methyl)-[1,1′-biphenyl]-3-carboxamide] | < 0.1 nM | 270 nM | –
15 | – | CCOc1c(C(=O)N[C@@H](C)c2ccc(F)c(C)c2)cc(CN2CCOC2=N)cc1-c1cn(C)nc1C(F)(F)F [Example 302, (S)-2-Ethoxy-N-(1-(4-fluoro-3-methylphenyl)ethyl)-5-((2-iminooxazolidin-3-yl)methyl)-3-(1-methyl-3-(trifluoromethyl)-1H-pyrazol-4-yl)benzamide] | < 0.1 nM | < 100 nM | –
16 | – | CCOc1c(C(=O)N[C@H](c2ccc(F)c(C)c2)C2CC2)cc(CN2CCOC2=N)cc1-c1cn(C)nc1C(F)(F)F [Example 303, (S)—N-(Cyclopropyl(4-fluoro-3-methylphenyl)methyl)-2-ethoxy-5-((2-iminooxazolidin-3-yl)methyl)-3-(1-methyl-3-(trifluoromethyl)-1H-pyrazol-4-yl)benzamide] | < 0.1 nM | < 100 nM | –
17 | – | COc1cc([C@@H](NC(=O)c2cc(CN3CCOC3=N)cc(-c3cccnc3C(F)(F)F)c2)C2CC2)ccc1F [Example 305, (S)—N-(Cyclopropyl(4-fluoro-3-methoxyphenyl)methyl)-3-((2-iminooxazolidin-3-yl)methyl)-5-(2-(trifluoromethyl)pyridin-3-yl)benzamide] | < 0.1 nM | < 100 nM | –
18 | < 0.1 nM | COc1cc([C@@H](NC(=O)c2cc(Cn3ccoc3=N)cc(-c3cn(C)nc3C(F)(F)F)c2)C2CC2)ncc1F [Example 306, (S)—N-(Cyclopropyl(5-fluoro-4-methoxypyridin-2-yl)methyl)-3-((2-iminooxazol-3(2H)-yl)methyl)-5-(1-methyl-3-(trifluoromethyl)-1H-pyrazol-4-yl)benzamide] | – | 410 nM | –
19 | – | COc1cc(CNC(=O)c2cc(CN3CCSC3=N)cc(-c3ccc(F)cc3C)c2)cc(OC)c1 [Example 308, N-(3,5-Dimethoxybenzyl)-4′-fluoro-5-((2-iminothiazolidin-3-yl)methyl)-2′-methyl-[1,1′-biphenyl]-3-carboxamide] | – | 630 nM | 0.45 nM
